Measurements published in PMC8343220, “The selectivity of α‐adrenoceptor agonists for the human α1A, α1B, and α1D‐adrenoceptors” (Pharmacology Research & Perspectives, 2021).
Read-outs that look alike come from different tables or passages of the source.

Tests used:
human α1A‐adrenoceptor [1] = target: T1, human α1A‐adrenoceptor (Homo sapiens, UniProt P35348); test: ^3H‐prazosin whole‐cell radioligand binding, CHO‐α1A cells
T1 construct: expressed in transfected cells; host or cells: CHO-K1
T1 sequence (P35348 1-466): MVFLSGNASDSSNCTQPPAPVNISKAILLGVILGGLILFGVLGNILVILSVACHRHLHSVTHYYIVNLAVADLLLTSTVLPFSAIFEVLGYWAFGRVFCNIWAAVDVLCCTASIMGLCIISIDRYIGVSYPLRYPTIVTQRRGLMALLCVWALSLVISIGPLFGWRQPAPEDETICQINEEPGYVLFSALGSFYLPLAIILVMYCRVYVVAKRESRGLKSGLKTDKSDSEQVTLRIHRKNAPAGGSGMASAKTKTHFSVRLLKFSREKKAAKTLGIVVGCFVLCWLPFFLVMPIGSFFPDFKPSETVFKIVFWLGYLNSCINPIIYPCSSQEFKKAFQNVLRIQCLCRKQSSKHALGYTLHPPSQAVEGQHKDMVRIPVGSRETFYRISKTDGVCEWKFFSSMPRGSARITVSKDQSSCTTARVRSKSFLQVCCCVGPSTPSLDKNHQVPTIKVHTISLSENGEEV

human α1B‐adrenoceptor [2] = target: T2, human α1B‐adrenoceptor (Homo sapiens, UniProt P35368); test: ^3H‐prazosin whole‐cell radioligand binding, CHO‐α1B cells
T2 construct: expressed in transfected cells; host or cells: CHO-K1
T2 sequence (P35368 1-520): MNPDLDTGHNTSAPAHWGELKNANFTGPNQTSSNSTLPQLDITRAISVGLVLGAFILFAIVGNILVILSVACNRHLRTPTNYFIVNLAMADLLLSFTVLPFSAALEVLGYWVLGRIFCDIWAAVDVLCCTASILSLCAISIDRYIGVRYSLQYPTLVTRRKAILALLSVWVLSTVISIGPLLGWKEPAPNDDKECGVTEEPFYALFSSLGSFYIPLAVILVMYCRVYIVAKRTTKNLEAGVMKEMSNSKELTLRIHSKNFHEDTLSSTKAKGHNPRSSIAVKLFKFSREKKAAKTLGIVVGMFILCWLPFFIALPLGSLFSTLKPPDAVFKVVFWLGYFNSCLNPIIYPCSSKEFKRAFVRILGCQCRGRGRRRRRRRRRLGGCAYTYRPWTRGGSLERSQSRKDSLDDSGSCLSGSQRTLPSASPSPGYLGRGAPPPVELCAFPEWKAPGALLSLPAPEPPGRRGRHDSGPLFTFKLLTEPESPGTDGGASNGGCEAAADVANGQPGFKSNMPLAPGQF

[3] = target: T3, human α1D‐adrenoceptor (full length) (Homo sapiens, UniProt P25100); test: ^3H‐prazosin whole‐cell radioligand binding, CHO‐α1D cells
T3 construct: human α1D‐adrenoceptor (full length) were used; expressed in transfected cells; host or cells: CHO-K1
T3 sequence (P25100 1-572): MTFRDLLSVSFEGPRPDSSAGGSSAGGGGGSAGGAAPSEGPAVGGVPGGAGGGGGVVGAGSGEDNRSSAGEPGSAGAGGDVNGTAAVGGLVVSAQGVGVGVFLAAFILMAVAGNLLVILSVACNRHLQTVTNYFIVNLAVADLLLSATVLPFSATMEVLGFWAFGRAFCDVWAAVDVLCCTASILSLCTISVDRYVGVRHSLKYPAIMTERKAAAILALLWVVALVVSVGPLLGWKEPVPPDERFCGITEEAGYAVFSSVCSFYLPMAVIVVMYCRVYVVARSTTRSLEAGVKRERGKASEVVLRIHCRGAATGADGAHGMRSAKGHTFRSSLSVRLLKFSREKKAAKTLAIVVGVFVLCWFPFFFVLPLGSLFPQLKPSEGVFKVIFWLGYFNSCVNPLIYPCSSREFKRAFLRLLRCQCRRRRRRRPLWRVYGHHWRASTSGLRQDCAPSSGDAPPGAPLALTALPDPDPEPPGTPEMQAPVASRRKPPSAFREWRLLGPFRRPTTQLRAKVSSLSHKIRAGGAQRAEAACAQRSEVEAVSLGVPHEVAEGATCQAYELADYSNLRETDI

human α1A‐adrenoceptor [4] = target: T1, human α1A‐adrenoceptor; test: Intracellular free calcium mobilization, CHO‐α1A cells; type: cell-based
human α1B‐adrenoceptor [5] = target: T2, human α1B‐adrenoceptor; test: Intracellular free calcium mobilization, CHO‐α1B cells; type: cell-based
[6] = target: T3, human α1D‐adrenoceptor (full length); test: Intracellular free calcium mobilization, CHO‐α1D cells; type: cell-based
[7] = system: parental CHO cell line without any transfected receptors; test: Intracellular calcium mobilization, parent CHO cells without transfected receptors; type: cell-based, Chinese hamster; conditions: for Emax: Cricetulus griseus, CHO, read-out: Intracellular calcium release % ionomycin
human α1A‐adrenoceptor [8] = target: T1, human α1A‐adrenoceptor; test: ERK1/2‐phosphorylation (Surefire Alphascreen), CHO‐α1A cells; type: cell-based
human α1B‐adrenoceptor [9] = target: T2, human α1B‐adrenoceptor; test: ERK1/2‐phosphorylation (Surefire Alphascreen), CHO‐α1B cells; type: cell-based
[10] = target: T3, human α1D‐adrenoceptor (full length); test: ERK1/2‐phosphorylation (Surefire Alphascreen), CHO‐α1D cells; type: cell-based
[11] = system: parental CHO cell line without any transfected receptors; test: ERK1/2‐phosphorylation, parent CHO cells without transfected receptors; type: cell-based, Chinese hamster
human α1A‐adrenoceptor [12] = target: T1, human α1A‐adrenoceptor; test: ^3H‐cAMP accumulation, CHO‐α1A cells; type: cell-based; conditions: for cAMP accumulation % forskolin: % of 10 µM forskolin response
human α1B‐adrenoceptor [13] = target: T2, human α1B‐adrenoceptor; test: ^3H‐cAMP accumulation, CHO‐α1B cells; type: cell-based
[14] = target: T3, human α1D‐adrenoceptor (full length); test: ^3H‐cAMP accumulation, CHO‐α1D cells; type: cell-based; conditions: cAMP accumulation without forskolin
[15] = system: parental CHO cell line without any transfected receptors; test: ^3H‐cAMP accumulation, parent CHO cells without transfected receptors; type: cell-based, Chinese hamster
human α1A‐adrenoceptor [16] = target: T1, human α1A‐adrenoceptor; test: ^3H‐cAMP accumulation in the presence of 10 μM forskolin, CHO‐α1A cells; type: cell-based; conditions: for cAMP accumulation (in presence of forskolin) Fold increase: fold increase of the forskolin response
human α1B‐adrenoceptor [17] = target: T2, human α1B‐adrenoceptor; test: ^3H‐cAMP accumulation in the presence of 10 μM forskolin, CHO‐α1B cells; type: cell-based
[18] = target: T3, human α1D‐adrenoceptor (full length); test: ^3H‐cAMP accumulation in the presence of 10 μM forskolin, CHO‐α1D cells; type: cell-based; conditions: CHO‐α1D cells; for cAMP (in presence of forskolin) Log EC50: log values given negative
[19] = system: parental CHO cell line without any transfected receptors; test: Forskolin‐stimulated cAMP accumulation, parent CHO cells without transfected receptors; type: cell-based, Chinese hamster
[20] = Intracellular calcium release Log EC50
[21] = ERK1/2‐phosphorylation Log EC50

SMILES	Affinity selectivity ratio α1A vs α1B (human α1A‐adrenoceptor [1]) [fold]	Affinity selectivity ratio α1A vs α1D (human α1A‐adrenoceptor [1]) [fold]	Kd (human α1A‐adrenoceptor [1]) [µM]	Affinity selectivity ratio α1B vs α1D [3] [fold]	Kd [3] [µM]	EC50 (human α1A‐adrenoceptor [4]) [µM]	Intracellular calcium release % ionomycin (human α1A‐adrenoceptor [4]) [%]	Log efficacy ratio KD /EC50 (human α1A‐adrenoceptor [4])	Intracellular calcium release % ionomycin [6]	Emax [7] [%]	EC50 (human α1A‐adrenoceptor [8]) [µM]	ERK1/2‐phosphorylation % PDBu (human α1A‐adrenoceptor [8]) [%]	ERK1/2‐phosphorylation % PDBu (human α1B‐adrenoceptor [9])	EC50 [10] [µM]	EC50 (human α1A‐adrenoceptor [12]) [µM]	cAMP accumulation % forskolin (human α1A‐adrenoceptor [12]; CHO‐α1A cells) [%]	cAMP accumulation % forskolin [15]	cAMP accumulation (in presence of forskolin) Fold increase (human α1A‐adrenoceptor [16]; CHO‐α1A cells) [fold]	cAMP accumulation (in presence of forskolin) % forskolin-stim cAMP [19]	cAMP accumulation (in presence of forskolin) Log EC50 [19]	further results
C=CCc1ccccc1OC(C)C1=NCCN1 (centres unmarked) [Allyphenyline]	47.9	8.7	0.162	5.5	1.41	0.00295	58.6 ± 3.0	1.74	12.3 ± 1.4%	5.9 ± 1	0.00158	79.3 ± 3.5	65.3 ± 3.0%	6.92	0.0891	82.4 ± 5.5	No response	2.38 ± 0.08	No response	No response	Kd (human α1B‐adrenoceptor [2]): 7.76 µM; EC50 (human α1B‐adrenoceptor [5]): 0.0794 µM; Intracellular calcium release % ionomycin (human α1B‐adrenoceptor [5]): 39.9 ± 1.9%; Log efficacy ratio KD /EC50 (human α1B‐adrenoceptor [5]): 1.99; EC50 [6]: 0.316 µM; Log efficacy ratio KD /EC50 [6]: 0.65; EC50 (human α1B‐adrenoceptor [9]): 0.282 µM; ERK1/2‐phosphorylation % PDBu [10]: 29.1 ± 4.7%; Emax at 100 µM ([11]; Cricetulus griseus, CHO, read-out: ERK1/2-phosphorylation % PDBu at 100μM): 12.7 ± 3.1%; EC50 (human α1B‐adrenoceptor [13]): 0.174 µM; cAMP accumulation % forskolin (human α1B‐adrenoceptor [13]; CHO‐α1B cells, % forskolin maximum response): 5.5 ± 0.9%; cAMP Log EC50 [14]: No response; EC50 (human α1A‐adrenoceptor [16]): 0.00794 µM; EC50 (human α1B‐adrenoceptor [17]): 0.0513 µM; cAMP accumulation (in presence of forskolin) Fold increase (human α1B‐adrenoceptor [17]; CHO‐α1B cells, fold increase of the forskolin response): 1.87 ± 0.07 fold; cAMP (in presence of forskolin) Fold increase ([18]; fold increase of the forskolin response): No response; cAMP (in presence of forskolin) Log EC50 [18]: No response
CC(Cc1ccc(O)cc1)NCC(O)c1cc(O)cc(O)c1 (centres unmarked) [Fenoterol]														3.98			No response		No response		Kd (human α1A‐adrenoceptor [1]; Log KD α1A, ^3H‐prazosin whole cell binding): 5.13 µM; Kd (human α1B‐adrenoceptor [2]; Log KD α1B, ^3H‐prazosin whole cell binding): 123 µM; Kd (human α1B‐adrenoceptor [2]; Log KD, ^3H‐prazosin binding): 123 µM; Kd ([3]; 3H‐prazosin binding Log KD): 44.7 µM; Kd ([3]; Log KD α1D, ^3H‐prazosin whole cell binding): 44.7 µM; EC50 (human α1A‐adrenoceptor [4]; [20]): 0.309 µM; EC50 (human α1B‐adrenoceptor [5]; [20]): 0.537 µM; Intracellular calcium release % ionomycin [7]: No response; EC50 (human α1A‐adrenoceptor [8]; [21]): 2.04 µM; EC50 (human α1B‐adrenoceptor [9]; [21]): 2.75 µM; ERK1/2-phosphorylation % PDBu [11]: No response; cAMP accumulation Log EC50 (human α1A‐adrenoceptor [12]; CHO‐α1A cells, 5 h): No response; cAMP Log EC50 [14]: No response; cAMP accumulation (in presence of forskolin) Log EC50 (human α1A‐adrenoceptor [16]; CHO‐α1A cells, 10 μM forskolin): No response; cAMP (in presence of forskolin) Log EC50 [18]: No response
CCC1(c2cnc[nH]2)Cc2ccccc2C1 [Atipamezole]							44.5 ± 2.6	0.62	No response			87.1 ± 5.0	No response			14.5 ± 2.6	No response	2.00 ± 0.10	No response	No response	EC50 (human α1A‐adrenoceptor [4]; CHO‐α1A cells, given as log EC50 (negative), read-out: Intracellular calcium release Log EC50 (converted)): 0.245 µM; Intracellular calcium release % Ionomycin at 100 µM (human α1B‐adrenoceptor [5]): 18.1 ± 4.8%; Intracellular calcium release Log EC50 ([6]; CHO‐α1D cells, log values given negative): No response; Intracellular calcium release % ionomycin [7]: No response; EC50 (human α1A‐adrenoceptor [8]; CHO‐α1A cells, 2–4 min, ^a bi‐phasic: initial stimulatory part, ^b also active in parent CHO cells, read-out: ERK1/2‐phosphorylation Log EC50 (converted)): 0.1 µM; ERK1/2‐phosphorylation Log EC50 (human α1B‐adrenoceptor [9]; CHO‐α1B cells, for bi‐phasic responses the initial stimulatory part): No response; ERK1/2‐phosphorylation % PDBu at 10 µM [10]: 5.3 ± 4.6%; ERK1/2-phosphorylation % PDBu at 10μM [11]: 3.1 ± 1.9%; EC50 (human α1A‐adrenoceptor [12]; CHO‐α1A cells, 5 h, read-out: cAMP accumulation Log EC50 (converted)): 1.17 µM; EC50 (human α1A‐adrenoceptor [16]; CHO‐α1A cells, 10 μM forskolin, read-out: cAMP accumulation (in presence of forskolin) Log EC50 (converted)): 0.479 µM
CN[C@@H](C)[C@H](O)c1ccccc1 [Ephedrine]	>11.7	3.2	85.1	>3.7	269	3.16	43.1 ± 1.6	1.43		5.3 ± 1.6	7.59	72.7 ± 6.5			117	7.8 ± 1.3	No response	1.70 ± 0.10	No response	No response	IC50 (human α1B‐adrenoceptor [2]): > 1000 µM; Intracellular calcium release % Ionomycin at 100 µM [6]: 2.6 ± 1.3%; ERK1/2‐phosphorylation % PDBu at 100 µM [10]: 3.3 ± 2.1%; ERK1/2-phosphorylation % PDBu [11]: No response; ERK1/2-phosphorylation Log EC50 [11]: No response; EC50 (human α1A‐adrenoceptor [16]): 70.8 µM
